Each compound was assayed against Urease (Canavalia ensiformis, UniProt P07374) (assay: Inhibition of jack bean urease using urea as substrate assessed as ammonia production after 15 mins by Weatherburn assay).
Chain of Urease (P07374 whole entry): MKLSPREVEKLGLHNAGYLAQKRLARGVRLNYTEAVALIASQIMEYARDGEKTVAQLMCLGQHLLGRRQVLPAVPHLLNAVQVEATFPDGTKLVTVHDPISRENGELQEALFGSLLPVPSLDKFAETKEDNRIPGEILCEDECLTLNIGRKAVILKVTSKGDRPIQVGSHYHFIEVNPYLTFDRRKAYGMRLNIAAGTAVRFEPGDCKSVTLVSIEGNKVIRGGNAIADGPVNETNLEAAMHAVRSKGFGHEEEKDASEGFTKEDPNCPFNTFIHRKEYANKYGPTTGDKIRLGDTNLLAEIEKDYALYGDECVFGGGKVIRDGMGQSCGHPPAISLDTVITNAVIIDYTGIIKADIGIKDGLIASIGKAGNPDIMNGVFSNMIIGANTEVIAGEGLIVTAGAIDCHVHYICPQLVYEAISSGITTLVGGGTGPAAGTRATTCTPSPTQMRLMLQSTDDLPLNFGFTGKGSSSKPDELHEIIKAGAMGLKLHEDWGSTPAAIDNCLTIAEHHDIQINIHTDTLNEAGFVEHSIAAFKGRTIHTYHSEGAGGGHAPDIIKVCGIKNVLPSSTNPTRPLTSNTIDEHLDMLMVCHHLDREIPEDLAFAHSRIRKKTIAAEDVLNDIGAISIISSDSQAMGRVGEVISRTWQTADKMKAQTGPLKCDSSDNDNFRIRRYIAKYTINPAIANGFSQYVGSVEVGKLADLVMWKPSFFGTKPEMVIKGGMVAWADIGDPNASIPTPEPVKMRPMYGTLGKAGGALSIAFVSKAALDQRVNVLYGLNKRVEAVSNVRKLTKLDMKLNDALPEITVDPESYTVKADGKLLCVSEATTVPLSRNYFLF

Structure (SMILES) | IC50 [µM]
O=C1Nc2ccc(Cl)cc2/C1=C\c1ccc(C(=O)N/N=C/c2c(O)cc(O)cc2O)cc1 | 13
C/C(=N\NC(=O)c1ccc(/C=C2/C(=O)Nc3ccc(Cl)cc32)cc1)c1c(O)cc(O)cc1O | 35.4
O=C1Nc2ccc(Cl)cc2/C1=C\c1ccc(C(=O)N/N=C/c2ccc(O)cc2O)cc1 | 42.9
O=C1Nc2ccc(Cl)cc2/C1=C\c1ccc(C(=O)N/N=C/c2cc(O)ccc2O)cc1 | 53.2
O=C1Nc2ccc(Cl)cc2/C1=C\c1ccc(C(=O)N/N=C/c2cc(O)c(O)cc2O)cc1 | 126
O=C1Nc2ccc(Cl)cc2/C1=C\c1ccc(C(=O)N/N=C/c2ccc(O)c(O)c2)cc1 | 70.8
O=C1Nc2ccc(Cl)cc2/C1=C\c1ccc(C(=O)N/N=C/c2cc(O)cc(O)c2)cc1 | 19.2
O=C1Nc2ccc(Cl)cc2/C1=C\c1ccc(C(=O)N/N=C/c2cccc(O)c2O)cc1 | 109
O=C1Nc2ccc(Cl)cc2/C1=C\c1ccc(C(=O)N/N=C/c2cccc(O)c2)cc1 | 102
O=C1Nc2ccc(Cl)cc2/C1=C\c1ccc(C(=O)N/N=C/c2ccc(O)cc2)cc1 | 84.8
O=C1Nc2ccc(Cl)cc2/C1=C\c1ccc(C(=O)N/N=C/c2ccccc2O)cc1 | 120
COc1ccc(/C=N/NC(=O)c2ccc(/C=C3/C(=O)Nc4ccc(Cl)cc43)cc2)cc1 | 144
O=C1Nc2ccc(Cl)cc2/C1=C\c1ccc(C(=O)N/N=C/c2ccc(Cl)cc2)cc1 | 111
C/C(=N\NC(=O)c1ccc(/C=C2/C(=O)Nc3ccc(Cl)cc32)cc1)c1ccccc1O | 71.8
COc1ccc(/C=N/NC(=O)c2ccc(/C=C3/C(=O)Nc4ccc(Cl)cc43)cc2)c(O)c1 | 145
COc1ccc(O)c(/C=N/NC(=O)c2ccc(/C=C3/C(=O)Nc4ccc(Cl)cc43)cc2)c1 | 82
O=C1Nc2ccc(Cl)cc2/C1=C\c1ccc(C(=O)N/N=C/c2ccc([N+](=O)[O-])cc2)cc1 | 92.4
O=C1Nc2ccc(Cl)cc2/C1=C\c1ccc(C(=O)N/N=C/c2cccc([N+](=O)[O-])c2)cc1 | 148
CC(=O)NO [ACETOHYDROXAMIC ACID] | 42

Reference: ChEMBL document CHEMBL3600348, “Synthesis of novel derivatives of oxindole, their urease inhibition and molecular docking studies” (Bioorg Med Chem Lett, 2015)
